IC50 data for eight compounds are collected here from patent US6498166B1, “Pyrazolopyridines” (SmithKline Beecham Corporation, priority 1999, dated 2002).

The term IC50 denotes the concentration needed to halve the response being measured. A lower IC50 goes with greater potency.

One assay has as its target T1, human COX-2 (Homo sapiens, UniProt P35354).
T1 construct: expressed in transfected cells; host or cells: COS cells (stably transfected)
T1 sequence (P35354 18-604): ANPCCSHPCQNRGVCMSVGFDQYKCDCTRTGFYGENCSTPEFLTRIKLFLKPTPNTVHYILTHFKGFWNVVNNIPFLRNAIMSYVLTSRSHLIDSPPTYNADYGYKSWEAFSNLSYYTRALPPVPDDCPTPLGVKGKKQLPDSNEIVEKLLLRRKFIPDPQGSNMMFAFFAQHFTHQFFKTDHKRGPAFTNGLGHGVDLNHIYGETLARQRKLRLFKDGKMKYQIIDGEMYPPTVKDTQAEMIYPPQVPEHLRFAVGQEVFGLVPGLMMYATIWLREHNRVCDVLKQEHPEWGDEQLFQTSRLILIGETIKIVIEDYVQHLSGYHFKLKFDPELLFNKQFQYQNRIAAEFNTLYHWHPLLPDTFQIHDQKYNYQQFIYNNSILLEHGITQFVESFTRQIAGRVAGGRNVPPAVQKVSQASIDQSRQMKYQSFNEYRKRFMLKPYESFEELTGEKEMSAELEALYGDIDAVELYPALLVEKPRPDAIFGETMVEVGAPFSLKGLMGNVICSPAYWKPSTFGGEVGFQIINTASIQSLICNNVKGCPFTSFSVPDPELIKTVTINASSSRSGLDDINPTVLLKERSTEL
The assay is described as follows: Inhibition of PGE2 release in COS cells stably transfected with human COX-2. The format is cell-based. Particulars: COS cells transfected with human COX-2; 1 hour preincubation, 30 μM arachidonic acid for 15 minutes, PGE2 by enzyme immunoassay. As for the experimental part: (§1) Inhibitory activity against human COX-1 and COX-2 was assessed in COS cells which had been stably transfected with cDNA for human COX-1 and human COX-2. 24 Hours prior to experiment, COS cells were transferred from the 175 cm^2 flasks in which they were grown, onto 24-well cell culture plates using the following procedure. The incubation medium (Dulbecco's modified eagles medium (DMEM) supplemented with heat-inactivated foetal calf serum (10% v/v), penicillin (100 IU/ml), streptomycin (100μg/ml) and geneticin (600 μg/ml)) was removed from a flask of confluent cells (1 flask at confluency contains approximately 1×10^7 cells). 10 ml of phosphate buffered saline (PBS) was added to the flask to wash the cells. Having discarded the PBS, cells were then rinsed in 10 ml trypsin for 20 seconds, after which the trypsin was removed and the flask placed in an incubator (37°) for 1-2 minutes until cells became detached from the flask. The flask was then removed from the incubator and cells resuspended in 10 ml of fresh incubation medium. The contents of the flask was transferred to a 250 ml sterile container and the volume of incubation medium subsequently made up to 100 ml. 1 ml cell suspension was pipetted into each well of 4×24-well cell culture plates. The plates were then placed in an incubator (37° C., 95% air/5% CO2) overnight. If more than 1 flask of cells were required, the cells from the individual flasks were combined before being dispensed into the 24-well plates.
(§2) Following the overnight incubation, the incubation medium was completely removed from the 24-well cell culture plates and replaced with 250 μl fresh DMEM (37° C.). The test compounds were made up to 250× the required test concentration in DMSO and were added to the wells in a volume of 1 μl. Plates were then mixed gently by swirling and then placed in an incubator for 1 hour (37° C., 95% air/5% CO2). Following the incubation period, 10 μl of arachidonic acid (750 μM) was added to each well to give a final arachidonic acid concentration of 30 μM. Plates were then incubated for a further 15 minutes, after which the incubation medium was removed from each well of the plates and stored at −20° C., prior to determination of prostaglandin E2 (PGE2) levels using enzyme immunoassay. The inhibitory potency of the test compound was expressed as an IC50 value, which is defined as the concentration of the compound required to inhibit the PGE2 release from the cells by 50%. The selectivity ratio of inhibition of COX-1 versus COX-2 was calculated by comparing respective IC50 values. The following IC50 values for inhibition of COX-2 and COX-1 were obtained for compounds of the invention: […]

The next assay deals with T2, human COX-1 (Homo sapiens, UniProt P23219).
T2 construct: expressed in transfected cells; host or cells: COS cells (stably transfected)
The experiment in a line: Inhibition of PGE2 release in COS cells stably transfected with human COX-1. The format is cell-based. Particulars: COS cells transfected with human COX-1; 1 hour preincubation, 30 μM arachidonic acid for 15 minutes, PGE2 by enzyme immunoassay. The method, then:
as §1, §2

T2 sequence (P23219 24-599): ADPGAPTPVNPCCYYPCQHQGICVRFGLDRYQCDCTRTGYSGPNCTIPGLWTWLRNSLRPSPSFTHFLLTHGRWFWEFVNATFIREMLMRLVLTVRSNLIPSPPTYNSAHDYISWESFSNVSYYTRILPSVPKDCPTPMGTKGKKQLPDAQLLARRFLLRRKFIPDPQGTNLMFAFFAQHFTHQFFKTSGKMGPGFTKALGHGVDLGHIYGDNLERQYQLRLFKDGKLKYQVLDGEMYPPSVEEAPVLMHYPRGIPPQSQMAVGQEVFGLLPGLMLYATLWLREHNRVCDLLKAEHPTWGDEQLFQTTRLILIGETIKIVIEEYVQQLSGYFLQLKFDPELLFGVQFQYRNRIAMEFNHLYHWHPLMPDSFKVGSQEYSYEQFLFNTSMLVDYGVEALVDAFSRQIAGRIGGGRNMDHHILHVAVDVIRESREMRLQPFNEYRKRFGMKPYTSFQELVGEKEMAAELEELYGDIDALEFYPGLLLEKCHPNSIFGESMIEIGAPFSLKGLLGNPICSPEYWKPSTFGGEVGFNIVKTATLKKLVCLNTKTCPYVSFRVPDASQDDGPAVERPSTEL

As for `NS(=O)(=O)c1ccc(-c2c(-c3cccc(F)c3)nn3cc(Cl)ccc23)cc1` [Example 7, 4-[6-Chloro-2-(3-fluorophenyl)pyrazolo[1,5-a]pyridin-3-yl]benzenesulfonamide], the concentration for half-maximal inhibition (IC50) turned out to be 1 nM against human COX-2 and 6760 nM against human COX-1.

Regarding `CCOc1ccc(-c2nn3cc(Cl)ccc3c2-c2ccc(S(N)(=O)=O)cc2)cc1` [Example 6, 4-[6-Chloro-2-(4-ethoxyphenyl)pyrazolo[1,5-a]pyridin-3-yl]benzenesulfonamide], the concentration for half-maximal inhibition (IC50) is 12 nM at human COX-2 and more than 100000 nM on human COX-1.

On to `NS(=O)(=O)c1ccc(-c2c(-c3ccc(F)cc3)nn3cc(Br)ccc23)cc1` [Example 3(vi), 4-[6-Bromo-2-(4-fluorophenyl)pyrazolo[1,5-a]pyridin-3-yl]benzenesulfonamide], for which the IC50 against human COX-2 turned out to be 1 nM; on human COX-1 it was 6760 nM.

For the compound `N#Cc1ccc2c(-c3ccc(S(N)(=O)=O)cc3)c(-c3ccc(F)cc3)nn2c1` [Example 1(iv), 4-[6-Cyano-2-(4-fluorophenyl)pyrazolo[1,5-a]pyridin-3-yl]benzenesulfonamide], the half-inhibitory concentration (IC50) against human COX-2 was 21 nM; on human COX-1, 20900 nM.

For the compound `CS(=O)(=O)c1ccc(-c2c(-c3ccc(F)cc3)nn3cc(Br)ccc23)cc1` [4(iii), 6-Bromo-2-(4-fluorophenyl)-3-[4-(methylsulfonyl)phenyl]pyrazolo[1,5-a]pyridine], the 50% inhibitory concentration (IC50) at human COX-2 was 5 nM; at human COX-1 it was more than 100000 nM.

Consider `NS(=O)(=O)c1ccc(-c2c(-c3ccc(F)cc3)nn3cc(Cl)ccc23)cc1` [Example 5(vi), 4-[6-Chloro-2-(4-fluorophenyl)pyrazolo[1,5-a]pyridin-3-yl]benzenesulfonamide], for which the IC50 against human COX-2 came to 21 nM; on human COX-1, 20900 nM.

Consider `NS(=O)(=O)c1ccc(-c2c(-c3ccccc3)nn3cc(Cl)ccc23)cc1` [8(iii), 4-[6-Chloro-2-phenyl-pyrazolo[1,5-a]pyridin-3-yl]benzenesulfonamide], for which the IC50 against human COX-2 was 5 nM; against human COX-1, more than 100000 nM.

Turning to `CS(=O)(=O)c1ccc(-c2c(-c3ccc(F)cc3)nn3cc(C#N)ccc23)cc1` [Example 2, 2-(4-Fluorophenyl)-3-[4-(methylsulfonyl)phenyl]pyrazolo[1,5-a]pyridine-6-carbonitrile], the results for the IC50 at human COX-2 and against human COX-1 were 12 nM and more than 100000 nM, respectively.
